Reference: ChEMBL document CHEMBL5058564, “EUbOPEN Chemogenomics Library 2 (Incucyte)” (2022)

Columns and labels:
Type in all cases: toxicity, cell-based
U2OS = experiment: Incucyte cell viability with U2OS; conditions: human, 10 µM, compound concentration 10 uM
Fibroblast = experiment: Incucyte cell viability with human fibroblast; conditions: 10 µM, compound concentration 10 uM
HEK-293T = experiment: Incucyte cell viability with HEK293T; conditions: human, 10 µM, compound concentration 10 uM
[1] = 12 h, replicate number 1, timepoint 12 hours
[2] = 12 h, replicate number 2, timepoint 12 hours
[3] = 18 h, replicate number 1, timepoint 18 hours
[4] = 0 h, replicate number 2, timepoint 0 hours
[5] = 6 h, replicate number 1, timepoint 6 hours
[6] = 6 h, replicate number 2, timepoint 6 hours
[7] = 24 h, replicate number 1, timepoint 24 hours
[8] = 24 h, replicate number 2, timepoint 24 hours
[9] = 0 h, replicate number 1, timepoint 0 hours
[10] = 18 h, replicate number 2, timepoint 18 hours
Note: unitless GR value; below 1 slowed growth and below 0 cell loss.

## CCOc1nc2cccc(C(=O)O)c2n1Cc1ccc(-c2ccccc2-c2nnn[nH]2)cc1
U2OS; [1]
  Growth Rate: 0.85
U2OS; [2]
  Growth Rate: 0.99
U2OS; [3]
  Growth Rate: 0.58
Fibroblast; [4]
  Growth Rate: 0.54
Fibroblast; [5]
  Growth Rate: 0.77
Fibroblast; [6]
  Growth Rate: 0.71
Fibroblast; [2]
  Growth Rate: 0.56
Fibroblast; [3]
  Growth Rate: 0.8
Fibroblast; [7]
  Growth Rate: 0.89
Fibroblast; [8]
  Growth Rate: 0.45
HEK-293T; [9]
  Growth Rate: 0.86
HEK-293T; [4]
  Growth Rate: 0.52
HEK-293T; [6]
  Growth Rate: 0.94

## Cc1ccc(CNc2ncnc3ccc(-c4ccc(CO)o4)cc23)o1
U2OS; [9]
  Growth Rate: -0.73
Fibroblast; [9]
  Growth Rate: -0.65
Fibroblast; [4]
  Growth Rate: 0.65
HEK-293T; [9]
  Growth Rate: 0.47

## COCCn1c(C)c(C)s/c1=N\C(=O)C1C(C)(C)C1(C)C
U2OS; [9]
  Growth Rate: 0.47
U2OS; [4]
  Growth Rate: -1
U2OS; [3]
  Growth Rate: 1
U2OS; [10]
  Growth Rate: 0.93
U2OS; [7]
  Growth Rate: 0.98
U2OS; [8]
  Growth Rate: 0.97
Fibroblast; [9]
  Growth Rate: 0.65
Fibroblast; [4]
  Growth Rate: 0.2
HEK-293T; [9]
  Growth Rate: 0.71
HEK-293T; [6]
  Growth Rate: 0.77
HEK-293T; [2]
  Growth Rate: 0.76

## O=C1NC(Nc2ccccc2)=N/C1=C\c1ccc2c(c1)OCO2
U2OS; [4]
  Growth Rate: -1
U2OS; [5]
  Growth Rate: -0.77
U2OS; [6]
  Growth Rate: 0.8
U2OS; [1]
  Growth Rate: 0.12
U2OS; [2]
  Growth Rate: 0.66
U2OS; [3]
  Growth Rate: 0.39
U2OS; [10]
  Growth Rate: 0.59
U2OS; [7]
  Growth Rate: 0.59
U2OS; [8]
  Growth Rate: 0.63
Fibroblast; [4]
  Growth Rate: 0.56
Fibroblast; [5]
  Growth Rate: 0.26
Fibroblast; [1]
  Growth Rate: 0.74
HEK-293T; [9]
  Growth Rate: 0.84
HEK-293T; [4]
  Growth Rate: 0.94
HEK-293T; [5]
  Growth Rate: 0.37
HEK-293T; [6]
  Growth Rate: 0.13
HEK-293T; [1]
  Growth Rate: 0.75
HEK-293T; [2]
  Growth Rate: 0.51
HEK-293T; [3]
  Growth Rate: 0.75
HEK-293T; [10]
  Growth Rate: 0.58
HEK-293T; [7]
  Growth Rate: 0.82
HEK-293T; [8]
  Growth Rate: 0.78

## COc1cccc2c1c(NS(=O)(=O)c1ccc(Cl)s1)nn2Cc1cccc(CNC(=O)C(C)(C)O)c1
U2OS; [9]
  Growth Rate: -0.39
U2OS; [4]
  Growth Rate: -1
U2OS; [1]
  Growth Rate: 0.99
U2OS; [2]
  Growth Rate: 0.98
U2OS; [10]
  Growth Rate: 0.83
U2OS; [8]
  Growth Rate: 0.89
Fibroblast; [4]
  Growth Rate: 0.35
Fibroblast; [5]
  Growth Rate: 0.17
Fibroblast; [6]
  Growth Rate: 0.5
Fibroblast; [1]
  Growth Rate: 0.41
Fibroblast; [3]
  Growth Rate: 0.35
Fibroblast; [7]
  Growth Rate: 0.53
HEK-293T; [9]
  Growth Rate: 0.52
HEK-293T; [6]
  Growth Rate: 0.95
HEK-293T; [1]
  Growth Rate: 0.98
HEK-293T; [2]
  Growth Rate: 0.47
HEK-293T; [7]
  Growth Rate: 0.38

## N#Cc1cc(F)cc(-c2nc(-c3ccc(F)cn3)no2)c1
U2OS; [4]
  Growth Rate: -0.87
U2OS; [5]
  Growth Rate: -0.32
U2OS; [6]
  Growth Rate: 0.62
U2OS; [1]
  Growth Rate: 0.46
U2OS; [2]
  Growth Rate: 0.86
U2OS; [3]
  Growth Rate: 0.57
U2OS; [7]
  Growth Rate: 0.65
Fibroblast; [4]
  Growth Rate: 0.68
Fibroblast; [5]
  Growth Rate: -0.02
Fibroblast; [1]
  Growth Rate: 0.63
Fibroblast; [3]
  Growth Rate: 0.84
Fibroblast; [7]
  Growth Rate: 0.6
HEK-293T; [9]
  Growth Rate: 0.85
HEK-293T; [4]
  Growth Rate: 0.21

## COc1cc(N2CCN(C)CC2)ccc1Nc1nccc(-c2cn(C)c3cnccc23)n1
U2OS; [9]
  Growth Rate: 0.8
U2OS; [4]
  Growth Rate: -1
U2OS; [8]
  Growth Rate: 0.96
Fibroblast; [9]
  Growth Rate: -0.91
Fibroblast; [4]
  Growth Rate: -0.24
HEK-293T; [9]
  Growth Rate: -0.61
HEK-293T; [4]
  Growth Rate: -0.28
HEK-293T; [8]
  Growth Rate: 0.95

## O=C1c2c(Br)c(Br)c(Br)c(Br)c2C(=O)N1c1ncc[nH]1
U2OS; [4]
  Growth Rate: -1
U2OS; [5]
  Growth Rate: 0.46
U2OS; [2]
  Growth Rate: 0.89
U2OS; [3]
  Growth Rate: 0.89
U2OS; [10]
  Growth Rate: 1
U2OS; [7]
  Growth Rate: 0.98
Fibroblast; [9]
  Growth Rate: -1
Fibroblast; [4]
  Growth Rate: 0.94
Fibroblast; [6]
  Growth Rate: 0.37
Fibroblast; [1]
  Growth Rate: 0.69
Fibroblast; [3]
  Growth Rate: 0.62
Fibroblast; [7]
  Growth Rate: 0.65
HEK-293T; [9]
  Growth Rate: 0.24
HEK-293T; [4]
  Growth Rate: 0.87
HEK-293T; [6]
  Growth Rate: 0.45
HEK-293T; [1]
  Growth Rate: 0.51
HEK-293T; [3]
  Growth Rate: 0.67
HEK-293T; [7]
  Growth Rate: 0.91

## CCN1/C(=C/C(C)=O)Sc2ccc(OC(C)=O)cc21
U2OS; [9]
  Growth Rate: -0.53
U2OS; [4]
  Growth Rate: -1
U2OS; [2]
  Growth Rate: 0.89
U2OS; [10]
  Growth Rate: 0.97
U2OS; [8]
  Growth Rate: 0.93
Fibroblast; [5]
  Growth Rate: -0.38
Fibroblast; [6]
  Growth Rate: -0.29
Fibroblast; [1]
  Growth Rate: 0.14
Fibroblast; [2]
  Growth Rate: 0.41
Fibroblast; [3]
  Growth Rate: 0.17
Fibroblast; [7]
  Growth Rate: 0.38
HEK-293T; [9]
  Growth Rate: 0.98
HEK-293T; [4]
  Growth Rate: 0.37
HEK-293T; [5]
  Growth Rate: 0.5
HEK-293T; [6]
  Growth Rate: 0.44
HEK-293T; [1]
  Growth Rate: 0.29
HEK-293T; [2]
  Growth Rate: 0.41
HEK-293T; [3]
  Growth Rate: 0.49
HEK-293T; [10]
  Growth Rate: 0.37
HEK-293T; [7]
  Growth Rate: 0.49
HEK-293T; [8]
  Growth Rate: 0.53

## CN(C)CCCc1cc(C(=O)Nc2ccc(-c3ccncc3)cc2)ccc1O.Cl.Cl
U2OS; [9]
  Growth Rate: -0.09
U2OS; [4]
  Growth Rate: -0.87
Fibroblast; [9]
  Growth Rate: 0.85
Fibroblast; [4]
  Growth Rate: 0.18
Fibroblast; [5]
  Growth Rate: 0.34
Fibroblast; [6]
  Growth Rate: 0.16
Fibroblast; [1]
  Growth Rate: 0.34
Fibroblast; [3]
  Growth Rate: 0
Fibroblast; [10]
  Growth Rate: 0.66
Fibroblast; [7]
  Growth Rate: -0.07
Fibroblast; [8]
  Growth Rate: 0.69
HEK-293T; [9]
  Growth Rate: 0.52
HEK-293T; [4]
  Growth Rate: 0.49
HEK-293T; [5]
  Growth Rate: 0.98
HEK-293T; [6]
  Growth Rate: 0.48
HEK-293T; [1]
  Growth Rate: 0.69
HEK-293T; [2]
  Growth Rate: 0.93
HEK-293T; [3]
  Growth Rate: 0.69
HEK-293T; [7]
  Growth Rate: 0.67
HEK-293T; [8]
  Growth Rate: 0.98

## COc1ccc2c(c1)C(C(=O)N(Cc1ccc(N(C)C)cc1)c1ccc(C(C)C)cc1)CCC2.Cl (stereo not given)
U2OS; [9]
  Growth Rate: -0.58
U2OS; [4]
  Growth Rate: -1
U2OS; [5]
  Growth Rate: 0.25
U2OS; [1]
  Growth Rate: 0.93
U2OS; [2]
  Growth Rate: 0.84
U2OS; [3]
  Growth Rate: 0.73
U2OS; [10]
  Growth Rate: 0.81
U2OS; [8]
  Growth Rate: 0.79
Fibroblast; [5]
  Growth Rate: 0.76
Fibroblast; [7]
  Growth Rate: 0.93
HEK-293T; [9]
  Growth Rate: 0.39
HEK-293T; [4]
  Growth Rate: 0.72
HEK-293T; [1]
  Growth Rate: 0.27
HEK-293T; [2]
  Growth Rate: 0.46
HEK-293T; [3]
  Growth Rate: 0.43
HEK-293T; [10]
  Growth Rate: 0.59
HEK-293T; [7]
  Growth Rate: 0.52
HEK-293T; [8]
  Growth Rate: 0.76

## COc1ccccc1N1CCN(C[C@@H](C(=O)NC(C)(C)C)c2ccccc2)CC1.Cl.Cl
U2OS; [4]
  Growth Rate: -0.77
U2OS; [5]
  Growth Rate: 0.29
U2OS; [3]
  Growth Rate: 0.77
U2OS; [10]
  Growth Rate: 0.92
U2OS; [8]
  Growth Rate: 1
Fibroblast; [4]
  Growth Rate: 0.48
Fibroblast; [5]
  Growth Rate: 0.54
Fibroblast; [6]
  Growth Rate: 0.96
Fibroblast; [1]
  Growth Rate: 0.69
Fibroblast; [3]
  Growth Rate: 1
Fibroblast; [7]
  Growth Rate: 0.57
HEK-293T; [9]
  Growth Rate: 0.89
HEK-293T; [6]
  Growth Rate: 0.54
HEK-293T; [2]
  Growth Rate: 0.79

## N[C@@]1(C(=O)O)CC[C@H]2[C@H](C(=O)O)[C@H]21
U2OS; [4]
  Growth Rate: -1
U2OS; [5]
  Growth Rate: 0.86
U2OS; [6]
  Growth Rate: 0.76
U2OS; [1]
  Growth Rate: 0.67
U2OS; [2]
  Growth Rate: 0.94
U2OS; [3]
  Growth Rate: 0.7
U2OS; [10]
  Growth Rate: 1
U2OS; [8]
  Growth Rate: 0.97
Fibroblast; [9]
  Growth Rate: -0.03
Fibroblast; [4]
  Growth Rate: 0.85
Fibroblast; [5]
  Growth Rate: 0.5
Fibroblast; [1]
  Growth Rate: 0.44
Fibroblast; [2]
  Growth Rate: 0.63
Fibroblast; [3]
  Growth Rate: 0.57
Fibroblast; [10]
  Growth Rate: 0.79
Fibroblast; [7]
  Growth Rate: 0.52
Fibroblast; [8]
  Growth Rate: 0.35
HEK-293T; [9]
  Growth Rate: 0.6
HEK-293T; [4]
  Growth Rate: 0.94
HEK-293T; [8]
  Growth Rate: 0.86
